From PubChem BioAssay (NCI)
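Compound exposure: 48 hours, 5 concentrations, 96-well plates. TGI denotes the concentration required for complete inhibition of growth.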

What was measured:
Test in all cases: inhibition of tumour cell growth, NCI panel, 48 h
786-0 renal = tested on: 786-0 renal
A498 renal = tested on: A498 renal
A549 NSCLC = tested on: A549 NSCLC
ACHN renal = tested on: ACHN renal
CAKI-1 renal = tested on: CAKI-1 renal
COLO 205 colon = tested on: COLO 205 colon
DLD-1 colon = tested on: DLD-1 colon
DMS 114 small cell lung = tested on: DMS 114 small cell lung
DMS 273 small cell lung = tested on: DMS 273 small cell lung
EKVX NSCLC = tested on: EKVX NSCLC
HCT-116 colon = tested on: HCT-116 colon
HCT-15 colon = tested on: HCT-15 colon
HOP-62 NSCLC = tested on: HOP-62 NSCLC
HT29 colon = tested on: HT29 colon
IGROV1 ovarian = tested on: IGROV1 ovarian
KM12 colon = tested on: KM12 colon
KM20L2 colon = tested on: KM20L2 colon
LOX IMVI melanoma = tested on: LOX IMVI melanoma
LXFL 529 NSCLC = tested on: LXFL 529 NSCLC
M14 melanoma = tested on: M14 melanoma
M19-MEL melanoma = tested on: M19-MEL melanoma
MALME-3M melanoma = tested on: MALME-3M melanoma
NCI-H23 lung = tested on: NCI-H23 lung
NCI-H460 lung = tested on: NCI-H460 lung
NCI-H522 lung = tested on: NCI-H522 lung
OVCAR-3 ovarian = tested on: OVCAR-3 ovarian
OVCAR-4 ovarian = tested on: OVCAR-4 ovarian
OVCAR-5 ovarian = tested on: OVCAR-5 ovarian
OVCAR-8 ovarian = tested on: OVCAR-8 ovarian
RXF 393 renal = tested on: RXF 393 renal
SF-268 CNS = tested on: SF-268 CNS
SF-295 CNS = tested on: SF-295 CNS
SF-539 CNS = tested on: SF-539 CNS
SK-MEL-28 melanoma = tested on: SK-MEL-28 melanoma
SK-MEL-5 melanoma = tested on: SK-MEL-5 melanoma
SK-OV-3 ovarian = tested on: SK-OV-3 ovarian
SN12C renal = tested on: SN12C renal
SNB-19 CNS = tested on: SNB-19 CNS
SNB-75 CNS = tested on: SNB-75 CNS
SNB-78 CNS = tested on: SNB-78 CNS
SW-620 colon = tested on: SW-620 colon
TK-10 renal = tested on: TK-10 renal
U251 CNS = tested on: U251 CNS
UACC-257 melanoma = tested on: UACC-257 melanoma
UACC-62 melanoma = tested on: UACC-62 melanoma
UO-31 renal = tested on: UO-31 renal
XF 498 CNS = tested on: XF 498 CNS
CCRF-CEM leukemia = tested on: CCRF-CEM leukemia
HL-60(TB) leukemia = tested on: HL-60(TB) leukemia
K-562 leukemia = tested on: K-562 leukemia
MOLT-4 leukemia = tested on: MOLT-4 leukemia
NCI-H226 lung = tested on: NCI-H226 lung
RPMI-8226 leukemia = tested on: RPMI-8226 leukemia
SK-MEL-2 melanoma = tested on: SK-MEL-2 melanoma
SR leukemia = tested on: SR leukemia

CSc1nnc(COc2ccc(Cl)cc2)o1
TGI (786-0 renal): > 100 µM
TGI (A498 renal): > 100 µM
TGI (A549 NSCLC): > 100 µM
TGI (ACHN renal): > 100 µM
TGI (CAKI-1 renal): > 100 µM
TGI (COLO 205 colon): > 100 µM
TGI (DLD-1 colon): > 100 µM
TGI (DMS 114 small cell lung): > 100 µM
TGI (DMS 273 small cell lung): > 100 µM
TGI (EKVX NSCLC): > 100 µM
TGI (HCT-116 colon): > 100 µM
TGI (HCT-15 colon): > 100 µM
TGI (HOP-62 NSCLC): > 100 µM
TGI (HT29 colon): > 100 µM
TGI (IGROV1 ovarian): > 100 µM
TGI (KM12 colon): > 100 µM
TGI (KM20L2 colon): > 100 µM
TGI (LOX IMVI melanoma): > 100 µM
TGI (LXFL 529 NSCLC): > 100 µM
TGI (M14 melanoma): > 100 µM
TGI (M19-MEL melanoma): > 100 µM
TGI (MALME-3M melanoma): > 100 µM
TGI (NCI-H23 lung): > 100 µM
TGI (NCI-H460 lung): > 100 µM
TGI (NCI-H522 lung): > 100 µM
TGI (OVCAR-3 ovarian): > 100 µM
TGI (OVCAR-4 ovarian): > 100 µM
TGI (OVCAR-5 ovarian): > 100 µM
TGI (OVCAR-8 ovarian): > 100 µM
TGI (RXF 393 renal): > 100 µM
TGI (SF-268 CNS): > 100 µM
TGI (SF-295 CNS): > 100 µM
TGI (SF-539 CNS): > 100 µM
TGI (SK-MEL-28 melanoma): > 100 µM
TGI (SK-MEL-5 melanoma): > 100 µM
TGI (SK-OV-3 ovarian): > 100 µM
TGI (SN12C renal): > 100 µM
TGI (SNB-19 CNS): > 100 µM
TGI (SNB-75 CNS): > 100 µM
TGI (SNB-78 CNS): > 100 µM
TGI (SW-620 colon): > 100 µM
TGI (TK-10 renal): > 100 µM
TGI (U251 CNS): > 100 µM
TGI (UACC-257 melanoma): > 100 µM
TGI (UACC-62 melanoma): > 100 µM
TGI (UO-31 renal): > 100 µM
TGI (XF 498 CNS): > 100 µM

c1ccc(N2N=C(c3ccco3)CC2c2ccco2)cc1 (configuration not stated)
TGI (786-0 renal): > 100 µM
TGI (A549 NSCLC): > 100 µM
TGI (ACHN renal): > 100 µM
TGI (CCRF-CEM leukemia): > 100 µM
TGI (COLO 205 colon): > 100 µM
TGI (DMS 114 small cell lung): > 100 µM
TGI (DMS 273 small cell lung): > 100 µM
TGI (EKVX NSCLC): > 100 µM
TGI (HCT-116 colon): > 100 µM
TGI (HCT-15 colon): > 100 µM
TGI (HL-60(TB) leukemia): 73.4 µM
TGI (HOP-62 NSCLC): > 100 µM
TGI (HT29 colon): > 100 µM
TGI (IGROV1 ovarian): > 100 µM
TGI (K-562 leukemia): > 100 µM
TGI (KM12 colon): > 100 µM
TGI (KM20L2 colon): > 100 µM
TGI (LOX IMVI melanoma): > 100 µM
TGI (LXFL 529 NSCLC): > 100 µM
TGI (M14 melanoma): > 100 µM
TGI (M19-MEL melanoma): > 100 µM
TGI (MALME-3M melanoma): > 100 µM
TGI (MOLT-4 leukemia): 52.4 µM
TGI (NCI-H226 lung): > 100 µM
TGI (NCI-H23 lung): > 100 µM
TGI (NCI-H460 lung): > 100 µM
TGI (NCI-H522 lung): > 100 µM
TGI (OVCAR-3 ovarian): > 100 µM
TGI (OVCAR-4 ovarian): > 100 µM
TGI (OVCAR-5 ovarian): > 100 µM
TGI (OVCAR-8 ovarian): > 100 µM
TGI (RPMI-8226 leukemia): > 100 µM
TGI (RXF 393 renal): > 100 µM
TGI (SF-268 CNS): > 100 µM
TGI (SF-295 CNS): > 100 µM
TGI (SF-539 CNS): > 100 µM
TGI (SK-MEL-2 melanoma): > 100 µM
TGI (SK-MEL-28 melanoma): > 100 µM
TGI (SK-MEL-5 melanoma): > 100 µM
TGI (SN12C renal): > 100 µM
TGI (SNB-19 CNS): > 100 µM
TGI (SNB-75 CNS): > 100 µM
TGI (SNB-78 CNS): > 100 µM
TGI (SR leukemia): > 100 µM
TGI (SW-620 colon): > 100 µM
TGI (TK-10 renal): > 100 µM
TGI (U251 CNS): > 100 µM
TGI (UACC-62 melanoma): > 100 µM
TGI (UO-31 renal): > 100 µM
TGI (XF 498 CNS): > 100 µM
